Values of other authors in patent EP0527762B1, “INHIBITION OF ALLOGRAFT AND […] REJECTION” (priority 1990, dated 1991).

System: rabbit kidney xenografts
Details: rabbit kidney into cats, discordant
For `O=C(O)c1cc(=O)c2c(OCC(O)COc3cccc4oc(C(=O)O)cc(=O)c34)cccc2o1` [sodium chromoglycate], the “prevention of hyperacute rejection” value is given as “not prevented”.
In the case of `C[C@H](CS)C(=O)N1CCC[C@H]1C(=O)O` [captopril], the “prevention of hyperacute rejection” value is listed as “not prevented”.
In the case of `CCOC(=O)[C@H](CCc1ccccc1)N[C@@H](C)C(=O)N1CCC[C@H]1C(=O)O` [enalapril], the “prevention of hyperacute rejection” value is given as “not prevented”.
For `CCCCC[C@H](O)/C=C/[C@@H]1[C@H]2C/C(=C/CCCC(=O)O)O[C@H]2C[C@H]1O` [prostacyclin], the “prevention of hyperacute rejection” value is given as “not prevented”.
